In series [1] the test system is Staphylococcus aureus ATCC 6538. Briefly: MIC determination by broth micro dilution (Example 5). The class given is cell-based. To be noted: ATCC6538; Staphylococcus aureus ATCC 6538, 4.5×10^3 Cfu/Ml. The procedure:
Minimum Inhibitory Concentration (MIC) Determination by Broth Micro Dilution
(§1) Standardisation of Inoculum
The suspensions were mixed. […] The inoculums were 30 mixed.
(§2) Inoculation and Incubation
100 μl of the initial concentration of the sample was added to the first well.
Staphylococcus aureus ATCC 6538 4.5×10^3 Cfu/Ml

Series [2] has as its system Candida albicans ATCC 10231. The class given is cell-based. To be noted: ATCC10231. The procedure:
(§3) MIC Determination by Broth Micro Dilution
as §1
(§4) The inoculums were mixed.
as §2

A further series in a line: in vitro. To be noted: human.
Series [3] has as its system Salmonella enterica serovar Typhimurium ATCC 14028.
Series [4] is classed as cell-based. As to conditions: Table 12, strain not named. The procedure:
as §3, §1, §4, §2

Series [5] relates to Candida albicans NCTC 885-653. The class given is cell-based. Details: unit not given beside the values. The procedure: as §3, §1, §4, §2

Values after ≈ are worked out from the molar mass of the structure shown. Like-named read-outs stand apart in the source and are kept apart here.

Compound `Cc1ccc(C(C)C)c(OC(=O)C[N+](C)(C)CCCCCCCCCC[N+](C)(C)CCCCCCCCCC[N+](C)(C)CC(=O)Oc2cc(C(C)C)ccc2C)c1.[Br-].[Cl-].[Cl-]` [Comparative compound 1, reference compound] registered an MIC in series [1] of 1.95 µg/mL.

On to `Cc1ccc(C(C)C)cc1OC(=O)C[N+](C)(C)CCCCCCCCCC[N+](C)(C)CC(=O)Oc1cc(C(C)C)ccc1C` [Formula IV, N1,N10-bis(2-(5-isopropyl-2-methylphenoxy)−2-oxoethyl)-N1,N1,N10,N10-tetramethyldecane-1,10-diaminium dichloride], for which the MIC is 3.9 to 7.8 µg/mL in series [2], 3.9 µg/mL in series [3] (Salmonella enterica) and 3.9 in series [3] (Salmonella enterica serovar Typhimurium ATCC 14028 (log 4 conditions)). The same compound came in with a CC50 in the series “in vitro” greater than 120 µg/mL.

Turning to `Cc1ccc(C(C)C)c(OC(=O)C[N+](C)(C)CCCCCCCCCC[N+](C)(C)CC(=O)Oc2cc(C)ccc2C(C)C)c1` [Formula V, N1,N10-bis(2-(2-isopropyl-5-methylphenoxy)−2-oxoethyl)-N1,N1,N10,N10-tetramethyldecane-1,10-diaminium dichloride], the MIC was 3.9 to 7.8 µg/mL in series [2] and 0.98 µg/mL in series [4]. Further, the “MIC (Table 11, head not given)” value in series [5] is on record as 3.9-7.8.

For the compound `Cc1ccc(C(C)C)c(OC(=O)C[N+](C)(C)CCCCCCCCCC[N+](C)(C)CCCCCCCCCC[N+](C)(C)CC(=O)Oc2cc(C)ccc2C(C)C)c1` [Formula VII, N1-(2-(2-isopropyl-5-methylphenoxy)−2-oxoethyl)-N10-(10-((2-(2-isopropyl-5-methylphenoxy)-2-oxoethyl)dimethylammonio)decyl)-N1,N1,N10,N10-tetramethyldecane-1,10-diaminium bromide dichloride], the MIC in series [1] was found to be 0.98 µg/mL.

`CN[C@H](CC(C)C)C(=O)N[C@H]1C(=O)N[C@@H](CC(N)=O)C(=O)N[C@H]2C(=O)N[C@H]3C(=O)N[C@H](C(=O)N[C@H](C(=O)O)c4cc(O)cc(O)c4-c4cc3ccc4O)[C@H](O)c3ccc(c(Cl)c3)Oc3cc2cc(c3O[C@@H]2O[C@H](CO)[C@@H](O)[C@H](O)[C@H]2O[C@H]2C[C@](C)(N)[C@H](O)[C@H](C)O2)Oc2ccc(cc2Cl)[C@H]1O` [Vancomycin, reference compound] came in with an MIC in series [3] (Salmonella enterica) of 78 µg/mL (≈ 53.8 µM).

These data come from patent publication US12577196B2 (priority 2019, dated 2026).
